From patent publication US20260166029A1, “METHODS AND SYSTEMS FOR TREATING DISEASE USING AN ATR/CHK1 SIGNALING PATHWAY INHIBITOR” (Acrivon Therapeutics, Inc., priority 2022, published 2026)
“And” between values parts separate entries of the source, which are not always exact repeats. Identical values can stand only once.

Tests used:
[1] = tested on: metastatic high-grade serous ovarian cancer; assay: Observed response in phase 2 clinical trials, patients with FFPE pre-treatment biopsies (Example 5); assay type: in vivo, human; design: key to RECIST response category: SD: stable disease;; PR: partial response;; PD: progressive disease;; details: for RECIST Responder: RECIST response = PR or CR
Excerpt: Biopsy samples from several independent clinical phase 2 studies were merged for this analysis based on availability. Study JTJN (NCT03414047) was a large multicenter, multi-country, non-randomized, parallel cohort, Phase 2 study of prexasertib in subjects with advanced stage, high grade serous ovarian, primary peritoneal, or fallopian tube cancer. Several single-center phase 2 studies sponsored by NCI of prexasertib in BRCA ½ wild-type or BRCA ½ mutant recurrent high-grade serous ovarian cancer (NCT02203513) provided additional FFPE samples; see Lee, Lancet Oncol. 19(2): 207-215 (2018). To evaluate whether a provided Response-Predictive Signature can successfully predict patient responders, sections of pre-treatment tumor biopsies were stained blinded to treatment outcome using antibodies against three biomarkers (biomarker 1 (BM1) Ser296 phosphorylated Chk1, biomarker 2 (BM2) Ser473 phosphorylated Kap1, and biomarker 3 (BM3) total cyclin E1) and imaged using immunofluorescence microscopy. The tumor samples were additionally stained using an antibody against cytokeratin in order to identify and distinguish tumor cells of interest from the surrounding stroma and stained with DAPI to identify cell nuclei.
The Response-Predictive Signature was evaluated by comparing predicted response to prexasertib of each patient to observed response in the clinical trials (Table 8, FIG. 15). Observed clinical trial responses were provided separately to the third party biostatistician. They were classified according to RECIST criteria as complete response (CR), partial response (PR), stable disease (SD), or progressive disease (PD). Additionally, the observed treatment outcome was quantified based on the maximum fractional change in tumor volume after treatment (Table 8, FIG. 15). […] Clinical RECIST responder rate (PR or CR) among those predicted by the Response-Predictive Signature to be non-responders was 5%. Clinical RECIST responder rate (PR or CR) among those predicted by the Response-Predictive Signature to be responders was 58%. This 58% represented a substantial responder-enrichment over the overall unenriched response rate of 25%.

[2] = tested on: metastatic high-grade serous ovarian cancer; assay: Observed treatment outcome in phase II clinical trials, patients with frozen pre-treatment biopsies (Example 4); assay type: in vivo, human; design: key to Treatment Result (RECIST): partial response (PR); stable disease (SD); progressive disease (PD)
Method: The study was conducted in a blinded, prospectively designed manner on pretreatment tumor biopsies collected from ovarian cancer patients treated in phase 2 trials at the NCI in the past with prexasertib, including a previous single center phase II clinical trial for prexasertib in metastatic high-grade serous ovarian cancer; see Lee et al., Lancet Oncol. 19(2): 207-215 (2018). These past studies were unable to identify predictive biomarkers. To evaluate whether a provided Response-Predictive Signature can successfully predict patient responders, frozen, de-identified sections of pre-treatment tumor biopsies from the phase II clinical trials were obtained. Moreover, they were received without any knowledge about clinical annotation, including response to prexasertib. Each patient tumor biopsy sample was stained using antibodies against three biomarkers and imaged using immunofluorescence microscopy. Biomarker 1 (BM1) was Ser296 phosphorylated Chk1. Biomarker 2 (BM2) was Ser473 phosphorylated Kap1. Biomarker 3 (BM3) was total cyclin E1. Unless otherwise indicated, these were the biomarkers used throughout the Examples.
To evaluate whether the provided Response-Predictive Signature can predict response to prexasertib treatment, the predicted response for each patient was compared to the observed treatment outcomes in the previously conducted phase II clinical trials for the patient (Table 6 and FIGS. 5, 12, and 13). This was done in a blinded manner, with quantitative biomarker scores and clinical annotation provided to a third-party biostatistician and the principal investigator, respectively. Observed treatment outcomes were classified according to RECIST criteria as partial response (PR), stable disease (SD), or progressive disease (PD). […] Additionally, the observed treatment outcome was quantified based on the fractional change in tumor volume after treatment and progression free survival (PFS) (Table 6 and FIGS. 5, 12, and 13).

CAOV3 = assay: Cell viability, sensitivity to prexasertib (Example 1); assay type: cell-based, human; details: CAOV3 cell line
Method: (§1) Predicted response to prexasertib was compared to experimentally measured sensitivity to prexasertib. […] EC50 values of less than or equal to 1 μM were considered to be actual responders, while values of greater than 1 μM were considered to be actual non-responders.

U2020 = assay: as above; assay type: cell-based, human; details: U2020 cell line
Method: as §1

MCF7 = assay: as above; assay type: cell-based, human; details: MCF7 cell line
Method: as §1

BT549 = assay: as above; assay type: cell-based, human; details: BT549 cell line
Method: as §1

PC3 = assay: as above; assay type: cell-based, human; details: PC3 cell line
Method: as §1

T47D = assay: as above; assay type: cell-based, human; details: T47D cell line
Method: as §1

A2780 = assay: as above; assay type: cell-based, human; details: A2780 cell line
Method: as §1

[3] = individual patients predicted non-responder (NR)
[4] = individual patients predicted responder (R)
[5] = based on measured sensitivity (EC50)
[6] = Homo sapiens, reduction in cell viability by 50%

**Q.** For `COc1cccc(OCCCN)c1-c1cc(Nc2cnc(C#N)cn2)n[nH]1` [prexasertib, 5-(5-(2-(3-aminopropoxy)-6-methoxyphenyl)-1H-pyrazol-3-ylamino)pyrazine-2-carbonitrile], which “overall unenriched response rate” value ([1]; all patients of the FFPE cohort) is on record?
**A.** 25%

**Q.** And the “Clinical RECIST responder rate (PR or CR)” value ([1]; among those predicted by the Response-Predictive Signature to be non-responders)?
**A.** 5%

**Q.** And the “Clinical RECIST responder rate (PR or CR)” value ([1]; among those predicted by the Response-Predictive Signature to be responders)?
**A.** 58%

**Q.** And the “Best Tumor Shrinkage (fraction from baseline)” value [1, 3]?
**A.** 0.048 and 0.159 and −0.037 and −0.118 (2×) and 0.353 and −0.024 and −0.077 and 0 (2×) and 0.342 and 0.105 and −0.192 and 0.146 and −0.012 and 0.015 and 0.24 and 0.1 and 0.04 and 0.01

**Q.** And the RECIST response category [1, 3]?
**A.** SD (16×) and PD (3×) and PR

**Q.** What about the “RECIST Responder” value [1, 3] of the same compound?
**A.** FALSE (19×) and TRUE

**Q.** What about the “Best Tumor Shrinkage (fraction from baseline)” value [1, 4] of the same compound?
**A.** 0.146 and 0 and 0.441 and 0.52 and 0.584 and −0.287 and 0.038 and 0.492 and 0.59 and 0.35 and 0.14 and 0.444

**Q.** What about the RECIST response category [1, 4] of the same compound?
**A.** SD (4×) and PR (7×) and PD

**Q.** And the “RECIST Responder” value [1, 4]?
**A.** FALSE (5×) and TRUE (7×)

**Q.** What about the “FracShrink (fractional change in tumor volume)” value [2, 3] of the same compound?
**A.** 0.109 and 0 and −0.26 and −0.1 and 1.04 and 0.02 and 0.085 and −0.04

**Q.** What about the PFS [2, 3] of the same compound?
**A.** 70 days and 56 days and 223 days and 104 days and 63 days and 33 days and 62 days and 112 days

**Q.** What about the “Treatment Result (RECIST)” value [2, 3] of the same compound?
**A.** SD (4×) and PD (4×)

**Q.** What about the “FracShrink (fractional change in tumor volume)” value [2, 4] of the same compound?
**A.** −0.36 and −0.345 and −0.46 and −0.33 and −0.27 and −0.01 (2×) and −0.23 and −0.76 and −0.14 and −0.02 and −0.11 and −0.5 and −0.495 and −0.194

**Q.** And the PFS [2, 4]?
**A.** 101 days and 402 days and 286 days and 211 days and 392 days and 62 days and 510 days and 602 days and 238 days and 258 days and 140 days and 293 days and 230 days and 112 days and 123 days

**Q.** What about the “Treatment Result (RECIST)” value [2, 4] of the same compound?
**A.** PR (7×) and SD (7×) and PD

**Q.** And the Actual response status (CAOV3; [5])?
**A.** R (EC50 values of less than or equal to 1 μM were considered to be actual responders)

**Q.** What about the EC50 (CAOV3; Homo sapiens, Caov-3, reduction in cell viability by 50%) of the same compound?
**A.** 17 nM

**Q.** What about the EC50 (U2020; [6]) of the same compound?
**A.** 7 nM

**Q.** And the Actual response status (U2020; [5])?
**A.** R (EC50 values of less than or equal to 1 μM were considered to be actual responders)

**Q.** What about the EC50 (MCF7; [6]) of the same compound?
**A.** > 10000 nM

**Q.** What about the Actual response status (MCF7; [5]) of the same compound?
**A.** NR (values of greater than 1 μM were considered to be actual non-responders)

**Q.** And the Actual response status (BT549; [5])?
**A.** R (EC50 values of less than or equal to 1 μM were considered to be actual responders)

**Q.** What about the EC50 (BT549; Homo sapiens, BT-549, reduction in cell viability by 50%) of the same compound?
**A.** 21 nM

**Q.** What about the EC50 (PC3; Homo sapiens, PC-3, reduction in cell viability by 50%) of the same compound?
**A.** > 10000 nM

**Q.** And the Actual response status (PC3; [5])?
**A.** NR (values of greater than 1 μM were considered to be actual non-responders)

**Q.** And the EC50 (T47D; [6])?
**A.** > 10000 nM

**Q.** What about the Actual response status (T47D; [5]) of the same compound?
**A.** NR (values of greater than 1 μM were considered to be actual non-responders)

**Q.** And the Actual response status (A2780; [5])?
**A.** NR (values of greater than 1 μM were considered to be actual non-responders)

**Q.** What about the EC50 (A2780; [6]) of the same compound?
**A.** > 10000 nM
